According to the NIST ThermoML archive (doi:10.1021/je049585t):
± gives the expanded uncertainty stated by the source.

Key:
[1] = Molar enthalpy of transition or fusion; details: Crystal
[2] = Crystal

For `CC1=CCC2C(=O)OC(=O)C2C1` (configuration not stated) [4-methyl-cyclohex-4-ene-1, 2-dicarboxylic acid anhydride], the “Molar enthalpy of transition or fusion” value [1] was 4.223 ± 0.0239 kcal/mol and the Normal melting temperature [2] was 62.39 ± 0.83 °C.
